Peptide text beside a SMILES is read from it.
Experiments:
Type in all cases: cell-based, human
[1] = test system: OG33 oligodendroglioma stem cells; assay: Cell cycle profile by propidium iodide staining and flow cytometry; conditions: 100 μM NAA or 10 μM NAAG
Procedure: (§1) Cell cycle profiles were visualized by propidium iodide (PI) staining as previously described (Perez-Martinez & Jaworski (2005) J Neurosci 25:4917-29). OG35, OG33 and mouse neural stem cells were grown in stem cell medium (SCM; DMEM/F12, B27, 20 ng/ml ea bFGF & EGF) while the oligodendrocyte progenitor cell line, Oli-neu (Jung et al. (1995) Eur J Neurosci 7:1245-65) was grown in Sato's medium (DMEM supplemented with 100 μg/ml apotransferrin, 5 μg/ml insulin, 60 nM triiodothyronine, 30 nM sodium selenite, 100 μM putrescine, 1% horse serum, and 25 μg/ml G418). […] after 0.25% (v/v) GTA treatment, cells were trypsinized, recovered by centrifugation, re-suspended (10^6 cells/ml) in a low-salt PI solution ([…] polyethylene glycol PEG 8000, […], 180 U/ml RNase A, 0.1% Triton X-100, and 4 mM sodium citrate), and incubated at 37° C. for 20 minutes. After addition of an equal volume of high-salt PI solution ([…] polyethylene glycol PEG 8000, […], 180 U/ml RNase A, 0.1% Triton X-100, and 400 mM NaCl) and incubation at 4° C. for 1 hour, cell cycle profiles were recorded by flow cytometry (BD LSR 11 Flow Cytometer, BD Biosciences; Franklin Lakes, N.J.).

[2] = test system: OG33 oligodendroglioma stem cells; assay: Growth dynamics, trypan blue exclusion and manual counting; conditions: 100 μM NAA or 10 μM NAAG; SCM and DM; later time points up to 5 days
Procedure: (§2) Stem cell spheres from two oligodendroglioma stem cell lines (OG33 and OG35) were plated (at 10,000 cells per well of a 24-well plate) in the absence or presence of 100 μM N-acetylaspartate (NAA) or 10 μM N-acetylaspartylglutamate (NAAG) in stem cell medium (SCM) containing DMEM/F12 (Gibco/Life Technologies, Grand Island, N.Y.), B27 supplement (Gibco/Life Technologies, Grand Island, N.Y.), and 20 ng/ml each basic fibroblast growth factor (bFGF) and epidermal growth factor (EGF), or differentiation medium (DM) containing DMEM, 10% FBS. Medium, with fresh drug, was replenished every 48 hours. Growth dynamics were assessed using trypan blue exclusion and manual counting 1, 3, and 5 days after plating.

[3] = test system: OG35 oligodendroglioma stem cells; assay: as above; conditions: 100 μM NAA or 10 μM NAAG; stem cell medium (SCM) and differentiation medium (DM); later time points up to 5 days
Procedure: as §2

ASPA in OG33 cells [4] = assay: Western blot of ASPA expression; conditions: NAA and NAAG treatment (not shown)
Procedure: SDS-PAGE (25 μg protein from whole cell lysates) and western blotting were performed as previously described (Lluri et al. 2008 Exp Cell Res 314:11-24). Cytosol and nuclear fractions were isolated according to standard protocols. Antibodies: rabbit anti-mouse ASPA (2,000×), (Madhavarao et al. 2004 Comp Neurol 472:318-29) rabbit anti-human ASPA (5,000×; GTX1338; GeneTex, Irvine, Calif.), goat anti-human actin (1,000×, sc-1616, Santa Cruz Biotechnology, Santa Cruz, Calif.), rabbit anti-human GAPDH (5,000×, sc-25778, Santa Cruz Biotechnology, Santa Cruz, Calif.), mouse anti-human histone H1 (250×, sc-8030; Santa Cruz Biotechnology, Santa Cruz, Calif.). Species-specific HRP—(3,000×) conjugated secondary antibodies were obtained from Jackson ImmunoResearch (West Grove, Pa.). Immunocomplexes were visualized by enhanced chemiluminescence (PerkinElmer Life Sciences; Boston, Mass.) and densitometry performed using Quantity One software (Bio-Rad; Hercules, Calif.).
SDS-PAGE (25 μg protein from whole cell lysates) and western blotting were performed as previously described in Example 1.

ASPA in OG33 cells [5] = assay: Immunocytochemistry of ASPA localization after NAA or NAAG; conditions: 100 μM NAA or 10 μM NAAG; 5 days in DM; OG33 (cytosolic)
Procedure: (§3) Immunocytochemistry was performed as described (Perez-Martinez & Jaworski (2005) J Neurosci 25:4917-29). Briefly, OG33 and OG35 cells were plated into differentiaion medium (DMEM, 10% FBS), fixed with 2% paraformaldehyde, and ASPA expression localized immunocytochemically using rabbit anti-mouse ASPA (1,500×) (Madhavarao et al., 2004 Comp Neurol 472:318-29) and Cy-3 conjugated secondary antibody (500×; Jackson ImmunoResearch, West Grove, Pa.).

ASPA in OG35 cells = assay: as above; conditions: 100 μM NAA or 10 μM NAAG; 5 days in DM; OG35 (primarily nuclear)
Procedure: as §3

[6] = test system: OG35 oligodendroglioma stem cells; assay: Cell cycle profile by propidium iodide staining and flow cytometry; conditions: 100 μM NAA or 10 μM NAAG
Procedure: as §1

Structure (SMILES) | OG33 cell number by flow cytometric cell cycle analysis [1] | OG33 cell growth (cell number, manual counting) [2] | OG35 cell growth (cell number, manual counting) [3] | Expression of novel 26 kDa ASPA species (ASPA in OG33 cells [4]) | ASPA spatial localization (ASPA in OG33 cells [5]) | ASPA spatial localization (ASPA in OG35 cells) | OG35 growth by flow cytometric cell cycle analysis (cells in G2/M and G0/G1) [6]
CC(=O)N[C@@H](CC(=O)O)C(=O)O [NAA, N-acetylaspartate] | no significant change | only increased in SCM | increased in SCM and DM | induced | little effect | little effect | 
CC(=O)N[C@@H](CC(=O)O)C(=O)N[C@@H](CCC(=O)O)C(=O)O [NAAG, N-acetylaspartylglutamate] (Ac-Asp-Glu-OH) | no significant change | only increased in SCM | increased in SCM and DM | induced | little effect | little effect | promoted OG35 growth

Source: US10765654B2, “Methods and compounds for treating cancer” (University of Vermont and State Agricultural College, priority 2011, dated 2020)
